# Tests used:
# Sphingosine kinase 2 = target: T1, Sphingosine kinase 2 (Mus musculus, UniProt Q9JIA7); assay: Inhibition of mouse recombinant SPHK2 expressed in baculovirus-infected Sf9 cells
# T1 sequence (Q9JIA7 whole entry): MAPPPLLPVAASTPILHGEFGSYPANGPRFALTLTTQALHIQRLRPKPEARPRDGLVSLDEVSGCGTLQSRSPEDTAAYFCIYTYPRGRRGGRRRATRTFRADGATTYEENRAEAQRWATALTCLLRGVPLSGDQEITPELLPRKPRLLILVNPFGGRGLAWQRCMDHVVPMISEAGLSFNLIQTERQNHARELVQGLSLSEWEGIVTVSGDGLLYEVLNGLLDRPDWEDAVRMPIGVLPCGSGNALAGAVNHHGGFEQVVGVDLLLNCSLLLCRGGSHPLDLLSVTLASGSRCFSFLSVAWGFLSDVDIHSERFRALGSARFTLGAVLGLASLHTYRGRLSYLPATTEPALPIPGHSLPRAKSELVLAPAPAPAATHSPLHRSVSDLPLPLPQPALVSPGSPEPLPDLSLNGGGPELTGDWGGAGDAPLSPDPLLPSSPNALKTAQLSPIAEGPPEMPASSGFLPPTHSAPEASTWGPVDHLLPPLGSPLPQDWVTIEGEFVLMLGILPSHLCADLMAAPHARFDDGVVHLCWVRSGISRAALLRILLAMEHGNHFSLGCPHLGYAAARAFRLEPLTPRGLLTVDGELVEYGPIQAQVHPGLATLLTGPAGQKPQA
# Sphingosine kinase 1 [1] = target: T2, Sphingosine kinase 1 (Homo sapiens, UniProt Q9NYA1); assay: biochemical
# Description: (§1) Inhibition of human recombinant SPHK1 expressed in baculovirus-infected Sf9 cells
# Sphingosine kinase 1 [2] = target: T2, Sphingosine kinase 1
# Description: as §1
# [3] = target: Sphingosine kinase 2 (Mus musculus) (UniProt Q9JIA7); assay: Inhibition of SPHK2
# T2 sequence (Q9NYA1 whole entry): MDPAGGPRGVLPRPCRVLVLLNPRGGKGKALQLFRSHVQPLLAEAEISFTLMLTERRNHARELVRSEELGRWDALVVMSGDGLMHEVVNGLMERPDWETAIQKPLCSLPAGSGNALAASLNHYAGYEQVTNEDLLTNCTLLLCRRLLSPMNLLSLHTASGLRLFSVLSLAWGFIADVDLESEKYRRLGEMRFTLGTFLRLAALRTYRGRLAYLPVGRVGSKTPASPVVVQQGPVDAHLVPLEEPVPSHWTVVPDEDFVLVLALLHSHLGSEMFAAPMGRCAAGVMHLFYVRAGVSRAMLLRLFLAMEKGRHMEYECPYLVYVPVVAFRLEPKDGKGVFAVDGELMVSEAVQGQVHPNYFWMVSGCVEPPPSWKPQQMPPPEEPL
Structure (SMILES),Ki (Sphingosine kinase 2) [µM],Ki (Sphingosine kinase 1 [1]) [µM],Ki (Sphingosine kinase 1 [2]) [µM],Ki [3] [µM]
Oc1ccc(Nc2nc(-c3ccc(Cl)cc3)cs2)cc1,33,–,–,–
CCCCCCCCCCCCCCNC(=O)C1(C(=N)N)CC1,7.5,6,–,–
CCCCCCCCCCCCCCCCNC(=O)C1(C(=N)N)CC1,> 100,5.4,–,–
CCCCCCCCCCCCCCCCCCNC(=O)C1(C(=N)N)CC1,> 100,9,–,–
N=C(N)C1(C(=O)Nc2ccc(CCCCCCCOCc3ccccc3)cc2)CC1,38,5,–,–
N=C(N)C1(C(=O)Nc2ccc(CCCCCCCCCc3ccccc3)cc2)CC1,> 10,0.5,–,–
N=C(N)C1(C(=O)Nc2ccc(CCCCCCCCc3ccccc3)cc2)CC1,> 10,1.3,–,–
N=C(N)C1(C(=O)Nc2ccc(CCCCCCOCC3CCCCC3)cc2)CC1,12,0.39,–,–
N=C(N)C1(C(=O)Nc2ccc(CCCCCCCOCC3CCCCC3)cc2)CC1,7,0.24,–,–
N=C(N)C1(C(=O)Nc2ccc(CCCCCCCCOCC3CCCCC3)cc2)CC1,> 20,0.8,–,–
N=C(N)C1(C(=O)Nc2ccc(CCCCCCCOCC34CC5CC(CC(C5)C3)C4)cc2)CC1,4.6,1.5,–,–
N=C(N)C1(C(=O)NCCCCCCCCCCOCC2CCCCC2)CC1,26,–,0.11,–
N=C(N)C1(C(=O)NCCCCCCCCCCOCC2CCCC2)CC1,25,0.45,–,–
N=C(N)C1(NC(=O)c2ccc(CCCCCCCOCC3CCCCC3)cc2)CC1,15,0.13,–,–
N=C(N)C1(NC(=O)c2ccc(CCCCCCCOCC3CCCC3)cc2)CC1,18,0.17,–,–
CCCCOCCCCCCCc1ccc(C(=O)NC2(C(=N)N)CC2)cc1,40,1.3,–,–
CCCCCCCCCCCOc1ccc(C(=O)NC2(C(=N)N)CC2)cc1,10,4,–,–
N=C(N)C1(NC(=O)CCCCCCCCCCOCC2CCCCC2)CC1,12,0.095,–,–
CCCCCCCCCCCCc1ccc(C(=O)NC2(C(=N)N)CCC2)cc1,5,1.6,–,–
N=C(N)[C@@H]1CCCN1C(=O)c1ccc(CCCCCCCOCC2CCCCC2)cc1,3,–,0.075,–
N=C(N)[C@@H]1CCCN1C(=O)c1ccc(CCCCCCCCCC2CCCCC2)cc1,5.3,0.099,–,–
N=C(N)[C@@H]1CCCN1C(=O)CCCCCCCCCCOCC1CCCCC1,8,0.13,–,–
N=C(N)[C@@H]1CCCN1C(=O)c1ccc(-c2nc(-c3cccc(CCC4CCCCC4)c3)c[nH]2)cc1,20,2,–,–
N=C(N)[C@@H]1CCCN1C(=O)c1ccc(-c2nc(-c3cccc(CCC4CCCCC4)c3)co2)cc1,4.2,–,0.047,–
N=C(N)[C@@H]1CCCN1C(=O)c1ccc(-c2nc(-c3cccc(CCC4CCCCC4)c3)cs2)cc1,6,0.11,–,–
CCCCCCCCc1ccc(NC(=O)[C@@H](N)CCO)cc1,31,–,–,31

# Source: ChEMBL document CHEMBL1772987, “Development of amidine-based sphingosine kinase 1 nanomolar inhibitors and reduction of sphingosine 1-phosphate in human leukemia cells” (J Med Chem, 2011)
